Among the data in PubChem BioAssay (NCI) are TGI values, retold here.

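Results reflect a 48-hour exposure of cells in 96-well plates to compound at five concentrations. TGI marks complete inhibition of growth.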 Where a SMILES comes first, the peptide text is derived from it. The star is where a group is joined. Cbz = O=C(OCc1ccccc1)*; OBn = c1ccc(CO*)cc1

One test deals with SW-620 colon. In words: NCI tumour cell line growth inhibition, 48 h.
The molecule `O=C(c1ccc(Cl)cc1Cl)N(C(=O)N1CCC(c2ccccc2)CC1)c1ccccc1` returned a TGI of more than 100 µM.
On to `COC(=O)CNC(=O)C(C)NC(=O)C(CC(=O)OCc1ccccc1)NC(=O)OCc1ccccc1` (stereo not drawn) (Cbz-Asp(OBn)-Ala-Gly-OMe; configuration not given here), for which the TGI is more than 100 µM.
Still for that read-out and setting: then `Oc1ccccc1/C=N/Nc1nnc2c3ccccc3c3ccccc3c2n1`, with more than 100 µM.
Still for that read-out and setting: for `CC(C)=CCOc1cc(NC(=S)c2ccoc2C)ccc1Cl` the value was more than 100 µM.
On the same count and under the same terms, then `N#CC1(C#N)C2CCCCC23OC(=N)C1(C#N)C(c1ccco1)O3` (configuration not stated), with 52.3 µM; and `O=c1n(/N=C/c2ccccc2)c(=O)n2n1C1C=CC2CC1`, with more than 100 µM; and `O=C(NC(C(F)(F)F)(C(F)(F)F)P(=O)(c1ccccc1)c1ccccc1)C(C(F)(F)F)C(F)(F)F`, with 62.3 µM.
Molecule `O=C1CC(=O)NC(=NN2C(=O)CSC2c2ccc(Cl)c(Cl)c2)N1` (configuration not stated) gave a TGI of more than 100 µM.
Same read-out and setting: for `COC(=O)[C@H](Cc1ccccc1)NC(=O)NCCN(CCNC(=O)N[C@@H](Cc1ccccc1)C(=O)OC)C(=O)N[C@@H](Cc1ccccc1)C(=O)OC` the value was 43.8 µM; for `COc1cc2c(cc1OC)-c1[nH]c3ccc(C#N)cc3c1CC(=O)N2`, more than 100 µM; for `COc1cc(Br)c(OC)c2c(OC)cc(C)cc12`, more than 100 µM.
Take `CCOC(=O)/C(N=Nc1ccc(-n2c(C)nc3ccccc3c2=O)cc1)=C(/C)O`: the TGI was more than 100 µM.
In turn, `C[C@@]12C=CC3C/C(=N\C(N)=S)C=C(CCCC4OCCO4)[C@]3(CC1)C2` (some centres not stated) came in with a TGI of 48.9 µM.
The same measure, in the same setting: for `CC(C)c1ccccc1SC1CC(=O)CC(Sc2ccccc2C(C)C)C12O[C@H](c1ccccc1)[C@@H](c1ccccc1)O2` (some centres not stated) the value was more than 100 µM; for `CSc1nc2ccccc2c(=O)n1/N=C1\C(=O)N(CN2CCCCC2)c2ccc(Cl)cc21`, 52.1 µM.

In a further test the test system is HL-60(TB) leukemia. The test is described as follows: NCI tumour cell line growth inhibition, 48 h.
Turning to `Oc1ccccc1/C=N/Nc1nnc2c3ccccc3c3ccccc3c2n1`, the TGI is more than 100 µM.
The same measure, in the same setting: then `O=c1n(/N=C/c2ccccc2)c(=O)n2n1C1C=CC2CC1`, with more than 100 µM.
On the same count and under the same terms, for `O=C(NC(C(F)(F)F)(C(F)(F)F)P(=O)(c1ccccc1)c1ccccc1)C(C(F)(F)F)C(F)(F)F` the value was 63.2 µM.
Same read-out and setting: then `COc1cc2c(cc1OC)-c1[nH]c3ccc(C#N)cc3c1CC(=O)N2`, with 7.45 µM; and `COc1cc(Br)c(OC)c2c(OC)cc(C)cc12`, with more than 100 µM; and `CCOC(=O)/C(N=Nc1ccc(-n2c(C)nc3ccccc3c2=O)cc1)=C(/C)O`, with 41.2 µM.
Regarding `CC(C)c1ccccc1SC1CC(=O)CC(Sc2ccccc2C(C)C)C12O[C@H](c1ccccc1)[C@@H](c1ccccc1)O2` (some centres not stated), the TGI came out at 34.8 µM.
Take `CSc1nc2ccccc2c(=O)n1/N=C1\C(=O)N(CN2CCCCC2)c2ccc(Cl)cc21`: the TGI came to 50.1 µM.

In the next test the test system is U251 CNS. The test is described as follows: NCI tumour cell line growth inhibition, 48 h.
With `O=C(c1ccc(Cl)cc1Cl)N(C(=O)N1CCC(c2ccccc2)CC1)c1ccccc1`, the TGI was more than 100 µM.
`COC(=O)CNC(=O)C(C)NC(=O)C(CC(=O)OCc1ccccc1)NC(=O)OCc1ccccc1` (stereo not drawn) (Cbz-Asp(OBn)-Ala-Gly-OMe; configuration not given here) showed a TGI of more than 100 µM.
Same read-out and setting: then `Oc1ccccc1/C=N/Nc1nnc2c3ccccc3c3ccccc3c2n1`, with more than 100 µM.
Same read-out and setting: for `CC(C)=CCOc1cc(NC(=S)c2ccoc2C)ccc1Cl` the value was more than 100 µM; for `O=c1n(/N=C/c2ccccc2)c(=O)n2n1C1C=CC2CC1`, more than 100 µM; for `O=C(NC(C(F)(F)F)(C(F)(F)F)P(=O)(c1ccccc1)c1ccccc1)C(C(F)(F)F)C(F)(F)F`, more than 100 µM.
The same measure, in the same setting: then `O=C1CC(=O)NC(=NN2C(=O)CSC2c2ccc(Cl)c(Cl)c2)N1` (configuration not stated), with more than 100 µM; and `COC(=O)[C@H](Cc1ccccc1)NC(=O)NCCN(CCNC(=O)N[C@@H](Cc1ccccc1)C(=O)OC)C(=O)N[C@@H](Cc1ccccc1)C(=O)OC`, with 41.2 µM.
As to `COc1cc2c(cc1OC)-c1[nH]c3ccc(C#N)cc3c1CC(=O)N2`, the TGI was more than 100 µM.
Still for that read-out and setting: then `COc1cc(Br)c(OC)c2c(OC)cc(C)cc12`, with more than 100 µM.
`CCOC(=O)/C(N=Nc1ccc(-n2c(C)nc3ccccc3c2=O)cc1)=C(/C)O` displayed a TGI of more than 100 µM.
`C[C@@]12C=CC3C/C(=N\C(N)=S)C=C(CCCC4OCCO4)[C@]3(CC1)C2` (some centres not stated): the TGI is 48.4 µM.
Molecule `CC(C)c1ccccc1SC1CC(=O)CC(Sc2ccccc2C(C)C)C12O[C@H](c1ccccc1)[C@@H](c1ccccc1)O2` (some centres not stated) gave a TGI of 40.1 µM.
`CSc1nc2ccccc2c(=O)n1/N=C1\C(=O)N(CN2CCCCC2)c2ccc(Cl)cc21` had a TGI of more than 100 µM.

The subject of a further test is NCI/ADR-RES ovarian. The test is described as follows: NCI tumour cell line growth inhibition, 48 h.
Regarding `O=C(c1ccc(Cl)cc1Cl)N(C(=O)N1CCC(c2ccccc2)CC1)c1ccccc1`, the TGI is more than 100 µM.
`COC(=O)CNC(=O)C(C)NC(=O)C(CC(=O)OCc1ccccc1)NC(=O)OCc1ccccc1` (stereo not drawn) (Cbz-Asp(OBn)-Ala-Gly-OMe; configuration not given here): the TGI is more than 100 µM.
Take `Oc1ccccc1/C=N/Nc1nnc2c3ccccc3c3ccccc3c2n1`: the TGI is more than 100 µM.
In turn, `CC(C)=CCOc1cc(NC(=S)c2ccoc2C)ccc1Cl` registered a TGI of more than 100 µM.
On the same count and under the same terms, for `N#CC1(C#N)C2CCCCC23OC(=N)C1(C#N)C(c1ccco1)O3` (configuration not stated) the value was more than 100 µM; for `O=c1n(/N=C/c2ccccc2)c(=O)n2n1C1C=CC2CC1`, more than 100 µM; for `O=C(NC(C(F)(F)F)(C(F)(F)F)P(=O)(c1ccccc1)c1ccccc1)C(C(F)(F)F)C(F)(F)F`, 47.9 µM.
On the same count and under the same terms, then `O=C1CC(=O)NC(=NN2C(=O)CSC2c2ccc(Cl)c(Cl)c2)N1` (configuration not stated), with more than 100 µM.
Take `COC(=O)[C@H](Cc1ccccc1)NC(=O)NCCN(CCNC(=O)N[C@@H](Cc1ccccc1)C(=O)OC)C(=O)N[C@@H](Cc1ccccc1)C(=O)OC`: the TGI is more than 100 µM.
On the same count and under the same terms, for `COc1cc2c(cc1OC)-c1[nH]c3ccc(C#N)cc3c1CC(=O)N2` the value was more than 100 µM; for `COc1cc(Br)c(OC)c2c(OC)cc(C)cc12`, more than 100 µM; for `CCOC(=O)/C(N=Nc1ccc(-n2c(C)nc3ccccc3c2=O)cc1)=C(/C)O`, 51.8 µM.
Consider `C[C@@]12C=CC3C/C(=N\C(N)=S)C=C(CCCC4OCCO4)[C@]3(CC1)C2` (some centres not stated), for which the TGI came out at 54.3 µM.
`CC(C)c1ccccc1SC1CC(=O)CC(Sc2ccccc2C(C)C)C12O[C@H](c1ccccc1)[C@@H](c1ccccc1)O2` (some centres not stated) gave a TGI of more than 100 µM.
Still for that read-out and setting: then `CSc1nc2ccccc2c(=O)n1/N=C1\C(=O)N(CN2CCCCC2)c2ccc(Cl)cc21`, with more than 100 µM.

Another test has as its system HCC-2998 colon. In words: NCI tumour cell line growth inhibition, 48 h.
For the molecule `O=C(c1ccc(Cl)cc1Cl)N(C(=O)N1CCC(c2ccccc2)CC1)c1ccccc1`, the TGI is more than 100 µM.
`COC(=O)CNC(=O)C(C)NC(=O)C(CC(=O)OCc1ccccc1)NC(=O)OCc1ccccc1` (stereo not drawn) (Cbz-Asp(OBn)-Ala-Gly-OMe; configuration not given here) came in with a TGI of more than 100 µM.
On the same count and under the same terms, for `CC(C)=CCOc1cc(NC(=S)c2ccoc2C)ccc1Cl` the value was more than 100 µM.
Regarding `N#CC1(C#N)C2CCCCC23OC(=N)C1(C#N)C(c1ccco1)O3` (configuration not stated), the TGI worked out at 31 µM.
The molecule `O=C(NC(C(F)(F)F)(C(F)(F)F)P(=O)(c1ccccc1)c1ccccc1)C(C(F)(F)F)C(F)(F)F` gave a TGI of more than 100 µM.
The same measure, in the same setting: for `O=C1CC(=O)NC(=NN2C(=O)CSC2c2ccc(Cl)c(Cl)c2)N1` (configuration not stated) the value was more than 100 µM; for `COC(=O)[C@H](Cc1ccccc1)NC(=O)NCCN(CCNC(=O)N[C@@H](Cc1ccccc1)C(=O)OC)C(=O)N[C@@H](Cc1ccccc1)C(=O)OC`, 34.8 µM.
Still for that read-out and setting: for `COc1cc(Br)c(OC)c2c(OC)cc(C)cc12` the value was more than 100 µM; for `C[C@@]12C=CC3C/C(=N\C(N)=S)C=C(CCCC4OCCO4)[C@]3(CC1)C2` (some centres not stated), 34.2 µM; for `CC(C)c1ccccc1SC1CC(=O)CC(Sc2ccccc2C(C)C)C12O[C@H](c1ccccc1)[C@@H](c1ccccc1)O2` (some centres not stated), more than 100 µM.

Another test relates to SNB-75 CNS. In words: NCI tumour cell line growth inhibition, 48 h.
Regarding `O=C(c1ccc(Cl)cc1Cl)N(C(=O)N1CCC(c2ccccc2)CC1)c1ccccc1`, the TGI was more than 100 µM.
The same measure, in the same setting: for `COC(=O)CNC(=O)C(C)NC(=O)C(CC(=O)OCc1ccccc1)NC(=O)OCc1ccccc1` (stereo not drawn) (Cbz-Asp(OBn)-Ala-Gly-OMe; configuration not given here) the value was more than 100 µM.
On the same count and under the same terms, for `Oc1ccccc1/C=N/Nc1nnc2c3ccccc3c3ccccc3c2n1` the value was 84.4 µM; for `CC(C)=CCOc1cc(NC(=S)c2ccoc2C)ccc1Cl`, 63.9 µM.
On the same count and under the same terms, then `N#CC1(C#N)C2CCCCC23OC(=N)C1(C#N)C(c1ccco1)O3` (configuration not stated), with more than 100 µM.
